Read-outs that look alike come from different tables or passages of the source.

One series concerns pain threshold. To be noted: rat, oxaliplatin-induced neuropathic pain; cited from earlier work.
The subject of a further series is hNav1.7. The conditions noted are these: heterologously expressed; cited from earlier work.
Series [1] concerns skeletal muscle sodium channels (native Nav1.4). Description: Tonic and use-dependent block of sodium currents. It counts as cell-based, Rana Esculenta. The conditions noted are these: for eudismic ratio [IC50 distomer/IC50 eutomer]: 10 Hz use-dependent block.
For another series, the system named is hNav1.4. To be noted: heterologously expressed; cited from earlier work.
Series [2] deals with skeletal muscle sodium channels (native Nav1.4). To be noted: use-dependent block at 10 Hz frequency; cited from earlier work.
In another series the test system is human serum albumin. The conditions noted are these: cited from earlier work.

As for `Cc1cccc(C)c1NC(=O)C1CCN(Cc2ccccc2)C1` (racemic) [To10, 1-benzyl-N-(2,6-dimethylphenyl)pyrrolidine-3-carboxamide], in the series on pain threshold, the “reverting the reduction of the pain threshold” value is listed as “more potent than tocainide”. Also, in the series on hNav1.7, the “use-dependent block of hNav1.7” value is “potent use-dependent blocker”. The “eudismic ratio [IC50 distomer/IC50 eutomer]” value (from here on “eudismic ratio”) in series [1] worked out at 1.3. In the series with hNav1.4, the “use-dependent block of hNav1.4” value is given as “potent use-dependent blocker”. In the case of `Cc1cccc(C)c1NC(=O)C1CCCN1Cc1ccccc1` (racemic) [To11, 1-benzyl-N-(2,6-dimethylphenyl)pyrrolidine-2-carboxamide], the “eudismic ratio” value in series [1] is listed as “greater than 3”. For `Cc1cccc(C)c1NC(=O)C1CCCN1` (stereo not drawn) [To5, N-(2,6-dimethylphenyl)pyrrolidine-2-carboxamide], the “eudismic ratio” value in series [2] is listed as above 3. On to `O=C(Nc1ccccc1)C1CCN(Cc2ccccc2)C1` (stereo not drawn) [To13, 1-benzyl-N-phenylpyrrolidine-3-carboxamide], for which the “fold less potent than To10 during use-dependent blockade” value in series [1] is reported as 4–5 fold. For the molecule `O=C(Nc1ccc(Cl)cc1)C1CCN(Cc2ccccc2)C1` (stereo not drawn) [To14, 1-benzyl-N-(4-chlorophenyl)pyrrolidine-3-carboxamide], the “fold less potent than To10 during use-dependent blockade” value in series [1] is given as 4–5 fold. Regarding `Cc1cc(C)c(C)c(NC(=O)C2CCN(Cc3ccccc3)C2)c1C` (stereo not drawn) [To15, 1-benzyl-N-(2,3,5,6-tetramethylphenyl)pyrrolidine-3-carboxamide], in the series with human serum albumin, the “binding activity to human serum albumin” value is recorded as “high binding activity”.

In the case of `Cc1cccc(C)c1NC(=O)C1CN(Cc2ccccc2)CCN1` (stereo not drawn) [To32, 4-benzyl-N-(2,6-dimethylphenyl)piperazine-2-carboxamide], the “ratio IC50TB/IC50 UDB” value in series [1] (tonic block vs use-dependent block) was “around 12”. Take `Cc1cccc(C)c1NC(=O)C1CCCCN1Cc1ccccc1` (stereo not drawn) [To35, 1-benzyl-N-(2,6-dimethylphenyl)piperidine-2-carboxamide]: the “fold less potent than To31 in tonic block” value in series [1] (tonic block) came out at 4 fold. Moreover, the “fold less potent than To31 in use-dependent block” value in series [1] (use-dependent block) is listed as 8 fold.

The record behind these values is paper PMC3314985 (Neuromuscular Disorders, 2012).
